Reference: ChEMBL document CHEMBL3507680, “University of Dundee, Gates Library screen for HepG2 cell viability”

Test: Human HepG2 cell viability assay in 384 well format
Format: toxicity, cell-based
Parameters: dose 125 nL, time 70.5 hour; concentration not given beside the values
Details: HepG2 cells, read-out: Inhibition

Row | SMILES | cytotoxicity at 70.5 h [%]
1 | Cc1cncc(C(=O)N2CC[C@@]3(C[C@H](NS(C)(=O)=O)CCO3)C2)c1 | -7.39
2 | O=C(Cn1cccn1)NCC1CCN(Cc2cc3ccccc3[nH]2)C1 (centres undefined) | -14.4
3 | O=C(NCc1nncn1C1CC1)c1ccc(F)c(COCC2CC2)c1 | 7.64
4 | COCCO[C@H]1CCN(c2ccc(C)nn2)[C@H]1Cc1cccnc1 | 12.5
5 | CC(C)(NC(=O)c1ccc(-c2ccccc2F)s1)C(N)=O | 12.6
6 | CCOCC1CN(Cc2ccccn2)Cc2nn(CC3CC3)cc21 (centres undefined) | -4.99
7 | O=C(NCCCc1ccco1)c1cnc(N2CCOCC2)nc1 | -18.7
8 | CCCn1nnnc1COC(=O)C1Cc2cc(Cl)ccc2O1 (centres undefined) | -9.18
9 | COc1ccccc1N1CCN(C(=O)CCn2ccc(C)n2)CC1(C)C | -5.62
10 | CCC(Nc1cccc(OC)c1)C(=O)N(CCO)Cc1nccs1 (centres undefined) | -3.06
11 | CCCNC(=O)N1CCc2ccc(S(=O)(=O)N3CCCC3)cc2C1 | -10.1
12 | Cc1nc(CN2CCN(C(=O)c3scnc3C)CC2)cs1 | -3.33
13 | O=C1CCC(=O)N1CCN1CCC(=Cc2ccccc2)CC1 | -0.346
14 | CCN(CC)c1ncccc1CNC(=O)c1cc2nc(C)cc(C)n2n1 | -0.33
15 | O=C(NCC(O)COc1ccc(F)cc1)C1(c2ccc(F)cc2)CC1 (centres undefined) | -8.65
16 | CCNC(c1cccnc1)c1cc(C)cc(C)c1 (centres undefined) | 2.24
17 | Cc1nc(CN2CCC3(CCN(Cc4cnn(C)c4)CC3)C2=O)cs1 | 10.4
18 | Nc1c(N2CCOCC2)ncnc1N1CCOCC1 | 0.518
19 | COc1ccc(C(=O)NC2CC2)c(OC2CCN(CC3CC3)CC2)c1 | -2.04
20 | CNC(=O)[C@H]1C[C@@H]2CN(S(=O)(=O)c3ccc(F)cc3)C[C@@H]2N1C | 5.56
21 | CC1CN(CC(=O)NCCc2ccccc2)CCN1c1nccs1 (centres undefined) | -5.41
22 | Cn1cc(C(=O)N2CCN(c3ccccc3)CC2)ccc1=O | -6.86
23 | O=C(C1CCCS1)N1CCOc2cccc(F)c21 (centres undefined) | -3.7

Row | SMILES | cytotoxicity at 70.5 h [%]
24 | Cc1nc(C(C)NC(=O)c2cn(C/C=C/c3ccccc3)nn2)n[nH]1 (centres undefined) | -13.1
25 | COc1ccc(OC)c(CN(C)c2ncc(S(N)(=O)=O)s2)c1 | -10.9
26 | Cc1occc1C(=O)Nc1ccc(C(=O)NC[C@H]2CCCN2)cc1 | 7
27 | COc1ccc(C)cc1CN1CCN(Cc2nccn2C)CC1 | 1.89
28 | O=C(C1CC1)N1CCN2C[C@H](c3ccccc3)[C@@H](CO)[C@H]2C1 | -5.2
29 | O=C1Nc2ccccc2CC12CCCN2Cc1cccnc1 (centres undefined) | -2.78
30 | CCn1cc(-c2cc(C(F)(F)F)nn2CCC#N)cn1 | -9.49
31 | O=C(c1ccnnc1)N1CC[C@H](OCC2CC2)[C@@H]1Cc1ccncc1 | -1.15
32 | CN(Cc1cc2n(n1)CCNC2)Cc1noc(C2CCC2)n1 | -3.21
33 | Cc1ccccc1CC(=O)N1CC[C@@](O)(CNS(C)(=O)=O)[C@H](O)C1 | 0.727
34 | Cc1ccoc1C(=O)NCC(Cc1ccc(F)cc1)C(N)=O (centres undefined) | -3.51
35 | CN1CCOC(CNCC(=O)NCCc2ccc3c(c2)OCCO3)C1 (centres undefined) | 4.64
36 | CCCn1ncc(C(=O)NCc2n[nH]c3c2CCCCC3)c1C | -13.2
37 | CN(Cc1nc2ccccc2[nH]1)C(=O)C(C)(C)n1cc(Cl)cn1 | -12.7
38 | Cc1cc(CNc2ccc3nc(C)sc3c2)no1 | -4.46
39 | CCC(CCNCc1cnc(C2CCC2)s1)N1CCCC1=O (centres undefined) | 26.8
40 | CCCc1nnc(N[C@H](C)c2ccc(OC)cc2)o1 | -10.6
41 | CC(=O)Nc1nc(C2CCN(C(=O)Cc3ccccc3)CC2)cs1 | -5.09
42 | Cc1cc(C)cc(C(=O)NCCS(=O)(=O)N2CCSCC2)c1 | 20.5
43 | Cc1nc2n(n1)CC(NCCC(=O)Nc1cc(C)on1)CC2 (centres undefined) | -6.62
44 | Cc1cn(Cc2ccccc2)nc1N | 2.81
45 | Brc1cnc(NCCCOCC2CCOCC2)nc1 | -5.42
46 | CC(C(=O)O)N1CC2(CCC1=O)CCN(CCSc1ccccc1)CC2 (centres undefined) | -13.8

Row | SMILES | cytotoxicity at 70.5 h [%]
47 | COc1cc(CNC(=O)Nc2nnc(C(C)C)s2)ccc1O | -10.5
48 | CN(Cc1ccco1)C1CCC12CCN(C(=O)N1CCCC1)CC2 (centres undefined) | -7.66
49 | Cc1nn(C)c(N(C)C)c1CNCc1cccc(Cn2cccn2)c1 | 9.51
50 | CO[C@H]1C[C@@H]2CN(C(=O)c3ccc(C)s3)C[C@@H]2C1 | -4.22
51 | CC(NCc1ccc(Cl)o1)c1nnc2n1CCCC2 (centres undefined) | 9.09
52 | c1ccc(CNc2nc(N3CCOCC3)nc3nccnc23)cc1 | -12.1
53 | CCN(Cc1ccc2c(c1)OCO2)C(=O)c1ccc(C)[nH]c1=O | 35.4
54 | Cc1nn(-c2ccccc2Cl)c(C)c1CCC(=O)NCCS(C)(=O)=O | 1.1
55 | COc1cccc(CN(Cc2ncc[nH]2)Cc2ccco2)c1 | -2.53
56 | CC(C)Nc1nc(N2CCCC2)nc2c1CN(C(C)C)CC2 | 0.846
57 | O=C1CCCN1Cc1ncn2c1CN(C(=O)Cc1ccccc1)CCC2 | 0.61
58 | CN(CC(=O)NC(Cc1ccsc1)c1cccnc1)Cc1cccnc1 (centres undefined) | 19.4
59 | CC(C)(CO)CNC(=O)c1ccnn1-c1ccc2ccccn12 | -2.1
60 | Cc1ccc(-c2nc(CN3CCN(C(=O)C4CC4)CC3)cs2)o1 | -5.72
61 | CC(C)CNC1(Cc2cc(-c3ccccc3)on2)COC1 | -6.11
62 | CC1CCCCN1C(=O)c1ccc2c(c1)OCCCO2 (centres undefined) | 10.5
63 | O=C(N[C@@H]1CN(Cc2ccsc2)[C@@H]2CCCO[C@@H]21)C1CC1 | 9.03
64 | Cc1nc(C)n(CC2CCCN(Cc3nnc(C4CC4)o3)C2)n1 (centres undefined) | -7.21
65 | COc1cccc(C(=O)N2CCOCC2CN(C)C)c1OC (centres undefined) | -2.02
66 | CN(C)[C@H]1CCCCN(C(=O)COCc2nc3cc(F)ccc3[nH]2)C1 | 15
67 | Cc1nc(Nc2nncs2)cc(C2CCCN2C)n1 (centres undefined) | 3.74
68 | N#Cc1ccc(F)c(CNC(=O)NC(CO)Cc2ccccc2)c1 (centres undefined) | -3.61
69 | CCCc1nc(C)c(C(=O)NCc2ccc(C)n2C)s1 | 17.6

Row | SMILES | cytotoxicity at 70.5 h [%]
70 | Fc1cccc(C2CCCN2Cc2nnnn2C2CC2)c1 (centres undefined) | -8.46
71 | O=C(c1ccccc1-n1cnnn1)N1CCC2(CC1)OCCO2 | -1.41
72 | CC(Cn1ccnc1)NC(=O)C1(c2ccc(F)cc2)CC1 (centres undefined) | -8.11
73 | COc1ccc(CCNC2CCCN(Cc3noc(C)n3)C2)cc1 (centres undefined) | -14
74 | Cn1cc(CN2CCc3onc(COc4cccnc4)c3C2)cn1 | 14.8
75 | CCOCCCNC(=O)Cc1cccs1 | -1.71
76 | COc1ccc2c(c1)NC(=O)C2OC(=O)CC(C)(C)C (centres undefined) | -9.54
77 | CCOC(C)c1noc(CN2CCCN(c3ccccn3)CC2)n1 (centres undefined) | -12.6
78 | COCCN(Cc1cccnc1)S(=O)(=O)c1ccc(F)cc1C | -4.8
79 | COCCNC(=O)CN(C)Cc1ccc(F)cc1Cl | -10.1
80 | O=C(O)[C@@H]1CN(C(=O)CCc2ccccn2)C[C@H]1c1ccccc1 | -4.59
81 | CC1(NC(=O)Cc2cccs2)CCS(=O)(=O)C1 (centres undefined) | -85.8
82 | N#CCCN1CC(O)CN(C(=O)c2cccc(C(F)(F)F)c2)CC1=O (centres undefined) | -1.43
83 | O=C(NCC1CC1)[C@H]1C[C@H]2OCC[C@H]2N(CCc2ccccc2)C1 | -1.31
84 | CCCN1CCN(C(=O)c2ccc3nc(C)oc3c2)[C@H]2CS(=O)(=O)C[C@H]21 | -7.59
85 | CSCCCN1CCC(c2nnc(Cn3ccnc3)n2C2CC2)CC1 | -0.0518
86 | CNC(=O)C1(c2cnccn2)CCCN1C(=O)c1ncccc1C (centres undefined) | -5.43
87 | Cc1nc(NC(=O)OC(C)(C)C)sc1C(=O)O | 21.2
88 | CC(=O)N1[C@H](Cn2cncn2)C[C@@H]2CN(c3ccc(C)nn3)CC[C@@H]21 | -6.42
89 | CCc1nc(-c2cncnc2C2CCCNC2)no1 (centres undefined) | -1.26
90 | CC(C)(C)C(=O)N1CCCC1c1ccc(C(=O)N2CCOCC2)s1 (centres undefined) | 16.2
91 | O=C(CN1CCCC(c2ncc[nH]2)C1)NCCCN1CCCCCC1=O (centres undefined) | -10.5
92 | CC/C=C(/C)C(=O)NS(=O)(=O)c1ccc(C#N)cc1C(F)(F)F | -7.29

Row | SMILES | cytotoxicity at 70.5 h [%]
93 | CC(=O)Nc1ccc(C(=O)N2CCSCC2c2ccc(C)o2)cc1 (centres undefined) | -4.02
94 | COc1ccc(CC2(C(=O)O)CCN(c3nc(C)ncc3C)CC2)cc1 | -10.8
95 | O=C(CCCOc1ccccc1)N1CCCC(n2cncn2)C1 (centres undefined) | 2.63
96 | COc1ccc(C2=C(C)C(N3CCc4ccccc43)=NS2(=O)=O)cc1 | -12.7
97 | CCc1ccc2nc(NCCCN(CCO)CCO)cc(C)c2c1 | -3.69
98 | O=C1CC(NCc2ccncc2)CN1Cc1cccc(F)c1 (centres undefined) | 1.94
99 | CS(=O)(=O)NC1CCCN(Cc2ccc(OCc3ccccn3)cc2)C1 (centres undefined) | -1.69
100 | COc1ccc(CN(Cc2cccnc2)CC2CCCO2)c(OC)c1 (centres undefined) | -5.79
101 | CN(C)S(=O)(=O)N1CC[C@]2(O)CCN(Cc3cccc(F)c3)C[C@@H]2C1 | -6.74
102 | CN(C)S(=O)(=O)NCc1cccnc1Oc1ccc(F)c(F)c1 | -4.24
103 | CS(=O)(=O)c1nccn1CCOc1ccccc1F | 13.8
104 | CCCN(Cc1nccn1C)C(=O)C(CC)Nc1cccc(OC)c1 (centres undefined) | -3.17
105 | Cn1nc(C(=O)N2CCCC2)c(F)c1NC(=O)Cc1ccccc1 | 28.2
106 | CC(C)S(=O)(=O)N1CCC(Cc2cccc(C(=O)O)c2)C1 (centres undefined) | -4.82
107 | O=C(c1cnc2ccc(F)cc2c1NCc1ccco1)N1CCCC1 | 28.7
108 | O=C(Nc1nnc[nH]1)C(c1cccc(F)c1)N1CCOCC1 (centres undefined) | -1.33
109 | Cc1c(-c2c(-c3ccccc3)ncn2[C@H](CO)C(=O)O)cnn1C | -7.01
110 | CS(=O)(=O)N1CCO[C@@H]2CN(C(=O)N3CCCC3)CC[C@@H]2C1 | -8.13
111 | CCOCCN1CCN(CC(=O)NC2(C#N)CCCC2)CC1CC (centres undefined) | 0.4
112 | Cc1ccsc1CNCC1CCCN1c1cccnn1 (centres undefined) | 19.9
113 | Cn1nc(-c2ccccc2)cc1[C@H]1CN2CC[C@H]1C[C@@H]2CNS(C)(=O)=O | -6.73
114 | Cc1noc(C)c1C(=O)NCC(c1ccc(F)cc1)N(C)C (centres undefined) | -2.05
